Measured values reported in patent publication US10227344B2, “CK2 inhibitors, compositions and methods thereof” (Polaris Pharmaceuticals, Inc., priority 2016, dated 2019).

Key:
Format in all cases: cell-based
Daudi = experiment: Cancer cell panel, cell viability (resazurin): Burkitt's Lymphoma, Daudi; settings: 72 hours, labelled drug combined with Example 3
H2122 = experiment: Cancer cell panel, cell viability (resazurin): NSCLC, H2122; settings: 72 hours, labelled drug combined with Example 3
SKOV-3 = experiment: Cancer cell panel, cell viability (resazurin): Ovarian, SKOV-3; settings: SKOV-3 (Ovarian), 72 hours; labelled drug combined with Example 3
Raji = experiment: Cancer cell panel, cell viability (resazurin): Burkitt's Lymphoma, Raji; settings: 72 hours, labelled drug combined with Example 3
A2780 = experiment: Cancer cell panel, cell viability (resazurin): Ovarian, A2780; settings: 72 hours, labelled drug combined with Example 3
HCT116 = experiment: Cancer cell panel, cell viability (resazurin): Colon, HCT116; settings: 72 hours, labelled drug combined with Example 3
EOL-1 = experiment: Cancer cell panel, cell viability (resazurin): Leukemia, EOL-1; settings: EOL-1 (Leukemia), 72 hours; labelled drug combined with Example 3
ACHN = experiment: Cancer cell panel, cell viability (resazurin): Renal, ACHN; settings: 72 hours, labelled drug combined with Example 3
MDA-MB-157 = experiment: Cancer cell panel, cell viability (resazurin): Breast, MDA-MB-157; settings: MDA-MB-157 (Breast), 72 hours; labelled drug combined with Example 3
BT-20 = experiment: Cancer cell panel, cell viability (resazurin): Breast, BT-20; settings: BT-20 (Breast), 72 hours; labelled drug combined with Example 3
Colo205 = experiment: Cancer cell panel, cell viability (resazurin): Colon, Colo205; settings: 72 hours, labelled drug combined with Example 3
DLD-1 = experiment: Cancer cell panel, cell viability (resazurin): Colon, DLD-1; settings: DLD-1 (Colon), 72 hours; labelled drug combined with Example 3
BT-474 = experiment: Cancer cell panel, cell viability (resazurin): Breast, BT-474; settings: BT-474 (Breast), 72 hours; labelled drug combined with Example 3
BxPC3 = experiment: Cancer cell panel, cell viability (resazurin): Pancreatic, BxPC3; settings: 72 hours, labelled drug combined with Example 3
WM-115 = experiment: Cancer cell panel, cell viability (resazurin): Melanoma, WM-115; settings: WM-115 (Melanoma), 72 hours; labelled drug combined with Example 3
MDA-MB-453 = experiment: Cancer cell panel, cell viability (resazurin): Breast, MDA-MB-453; settings: MDA-MB-453 (Breast), 72 hours; labelled drug combined with Example 3
SK-MEL-3 = experiment: Cancer cell panel, cell viability (resazurin): Melanoma, SK-MEL-3; settings: SK-MEL-3 (Melanoma), 72 hours; labelled drug combined with Example 3
H1299 = experiment: Cancer cell panel, cell viability (resazurin): NSCLC, H1299; settings: 72 hours, labelled drug combined with Example 3
MOLT4 = experiment: Cancer cell panel, cell viability (resazurin): Leukemia, MOLT4; settings: 72 hours, labelled drug combined with Example 3
PC3 = experiment: Cancer cell panel, cell viability (resazurin): Prostate, PC3; settings: 72 hours, labelled drug combined with Example 3
OVCAR-3 = experiment: Cancer cell panel, cell viability (resazurin): Ovarian, OVCAR-3; settings: OVCAR-3 (Ovarian), 72 hours; labelled drug combined with Example 3
RPMI8226 = experiment: Cancer cell panel, cell viability (resazurin): multiple myeloma, RPMI8226; settings: 72 hours, labelled drug combined with Example 3
HL60 = experiment: Cancer cell panel, cell viability (resazurin): Leukemia, HL60; settings: 72 hours, labelled drug combined with Example 3
A375 = experiment: Cancer cell panel, cell viability (resazurin): Melanoma, A375; settings: 72 hours, labelled drug combined with Example 3
H460 = experiment: Cancer cell panel, cell viability (resazurin): NSCLC, H460; settings: 72 hours, labelled drug combined with Example 3
T47D = experiment: Cancer cell panel, cell viability (resazurin): Breast, T47D; settings: 72 hours, labelled drug combined with Example 3
LoVo = experiment: Cancer cell panel, cell viability (resazurin): Colon, LoVo; settings: 72 hours, labelled drug combined with Example 3
ZR-75-1 = experiment: Cancer cell panel, cell viability (resazurin): Breast, ZR-75-1; settings: ZR-75-1 (Breast), 72 hours; labelled drug combined with Example 3
H1975 = experiment: Cancer cell panel, cell viability (resazurin): NSCLC, H1975; settings: 72 hours, labelled drug combined with Example 3
K562 = experiment: Cancer cell panel, cell viability (resazurin): Leukemia, K562; settings: 72 hours, labelled drug combined with Example 3
SkBr-3 = experiment: Cancer cell panel, cell viability (resazurin): Breast, SkBr-3; settings: SkBr-3 (Breast), 72 hours; labelled drug combined with Example 3
H23 = experiment: Cancer cell panel, cell viability (resazurin): NSCLC, H23; settings: 72 hours, labelled drug combined with Example 3
MDA-MB-231 = experiment: Cancer cell panel, cell viability (resazurin): Breast, MDA-MB-231; settings: MDA-MB-231 (Breast), 72 hours; labelled drug combined with Example 3
SK-MEL-24 = experiment: Cancer cell panel, cell viability (resazurin): Melanoma, SK-MEL-24; settings: SK-MEL-24 (Melanoma), 72 hours; labelled drug combined with Example 3
Mia-Paca-2 = experiment: Cancer cell panel, cell viability (resazurin): Pancreatic, Mia-Paca-2; settings: Mia-Paca-2 (Pancreatic), 72 hours; labelled drug combined with Example 3
Caov-3 = experiment: Cancer cell panel, cell viability (resazurin): Ovarian, Caov-3; settings: Caov-3 (Ovarian), 72 hours; labelled drug combined with Example 3
Panc-1 = experiment: Cancer cell panel, cell viability (resazurin): Pancreatic, Panc-1; settings: Panc-1 (Pancreatic), 72 hours; labelled drug combined with Example 3
Caki-1 = experiment: Cancer cell panel, cell viability (resazurin): Renal, Caki-1; settings: Caki-1 (Renal), 72 hours; labelled drug combined with Example 3

COc1cccc2c1C(=O)c1c(O)c3c(c(O)c1C2=O)C[C@@](O)(C(=O)CO)C[C@@H]3O[C@H]1C[C@H](N)[C@H](O)[C@H](C)O1 [Doxorubicin, doxorubicin] was tested, and the “synergy, additivity or antagonism of the combination of Example 3 with the anti-cancer drug” value (shortened to “synergy, additivity or antagonism”) (Daudi) was “+ (Additive relative to each agent alone (CI = 0.9-1 by Bliss Independence Model and <0.9 by Highest Single Agent Model))”, the “synergy, additivity or antagonism” value (H2122) was “+ + (Slight synergy relative to each agent alone (CI = 0.75-0.9 by Bliss Independence Model))” and the “synergy, additivity or antagonism” value (SKOV-3) was “+ (Additive relative to each agent alone (CI = 0.9-1 by Bliss Independence Model and <0.9 by Highest Single Agent Model))”. For the same compound, the “synergy, additivity or antagonism” value (Raji) was “+ + (Slight synergy relative to each agent alone (CI = 0.75-0.9 by Bliss Independence Model))”, the “synergy, additivity or antagonism” value (A2780) was “+ (Additive relative to each agent alone (CI = 0.9-1 by Bliss Independence Model and <0.9 by Highest Single Agent Model))” and the “synergy, additivity or antagonism” value (HCT116) was “+ + (Slight synergy relative to each agent alone (CI = 0.75-0.9 by Bliss Independence Model))”. For the same compound, the “synergy, additivity or antagonism” value (EOL-1) was “+ + (Slight synergy relative to each agent alone (CI = 0.75-0.9 by Bliss Independence Model))”, the “synergy, additivity or antagonism” value (ACHN) was “+ (Additive relative to each agent alone (CI = 0.9-1 by Bliss Independence Model and <0.9 by Highest Single Agent Model))” and the “synergy, additivity or antagonism” value (MDA-MB-157) was “+ + + (Synergy relative to each agent alone (CI = 0.4-0.74 by Bliss Independence Model))”. For the same compound, the “synergy, additivity or antagonism” value (BT-20) was “+ + (Slight synergy relative to each agent alone (CI = 0.75-0.9 by Bliss Independence Model))”, the “synergy, additivity or antagonism” value (Colo205) was “+ + (Slight synergy relative to each agent alone (CI = 0.75-0.9 by Bliss Independence Model))” and the “synergy, additivity or antagonism” value (DLD-1) was “+ + (Slight synergy relative to each agent alone (CI = 0.75-0.9 by Bliss Independence Model))”. The “synergy, additivity or antagonism” value (BT-474) was “+ + (Slight synergy relative to each agent alone (CI = 0.75-0.9 by Bliss Independence Model))”, the “synergy, additivity or antagonism” value (BxPC3) was “+ + (Slight synergy relative to each agent alone (CI = 0.75-0.9 by Bliss Independence Model))” and the “synergy, additivity or antagonism” value (WM-115) was “+ + + (Synergy relative to each agent alone (CI = 0.4-0.74 by Bliss Independence Model))”. For the same compound, the “synergy, additivity or antagonism” value (MDA-MB-453) was “+ + + (Synergy relative to each agent alone (CI = 0.4-0.74 by Bliss Independence Model))”, the “synergy, additivity or antagonism” value (SK-MEL-3) was “+ + (Slight synergy relative to each agent alone (CI = 0.75-0.9 by Bliss Independence Model))” and the “synergy, additivity or antagonism” value (H1299) was “+ (Additive relative to each agent alone (CI = 0.9-1 by Bliss Independence Model and <0.9 by Highest Single Agent Model))”. The “synergy, additivity or antagonism” value (MOLT4) was “+ + + (Synergy relative to each agent alone (CI = 0.4-0.74 by Bliss Independence Model))”, the “synergy, additivity or antagonism” value (PC3) was “+ (Additive relative to each agent alone (CI = 0.9-1 by Bliss Independence Model and <0.9 by Highest Single Agent Model))” and the “synergy, additivity or antagonism” value (OVCAR-3) was “+ + (Slight synergy relative to each agent alone (CI = 0.75-0.9 by Bliss Independence Model))”. The “synergy, additivity or antagonism” value (RPMI8226) was “+ + + (Synergy relative to each agent alone (CI = 0.4-0.74 by Bliss Independence Model))”, the “synergy, additivity or antagonism” value (HL60) was “+ (Additive relative to each agent alone (CI = 0.9-1 by Bliss Independence Model and <0.9 by Highest Single Agent Model))” and the “synergy, additivity or antagonism” value (A375) was “+ (Additive relative to each agent alone (CI = 0.9-1 by Bliss Independence Model and <0.9 by Highest Single Agent Model))”. The “synergy, additivity or antagonism” value (H460) was “+ + (Slight synergy relative to each agent alone (CI = 0.75-0.9 by Bliss Independence Model))”, the “synergy, additivity or antagonism” value (T47D) was “+ (Additive relative to each agent alone (CI = 0.9-1 by Bliss Independence Model and <0.9 by Highest Single Agent Model))” and the “synergy, additivity or antagonism” value (LoVo) was “+ (Additive relative to each agent alone (CI = 0.9-1 by Bliss Independence Model and <0.9 by Highest Single Agent Model))”. For the same compound, the “synergy, additivity or antagonism” value (ZR-75-1) was “+ + (Slight synergy relative to each agent alone (CI = 0.75-0.9 by Bliss Independence Model))”, the “synergy, additivity or antagonism” value (H1975) was “+ (Additive relative to each agent alone (CI = 0.9-1 by Bliss Independence Model and <0.9 by Highest Single Agent Model))” and the “synergy, additivity or antagonism” value (K562) was “+ (Additive relative to each agent alone (CI = 0.9-1 by Bliss Independence Model and <0.9 by Highest Single Agent Model))”. For the same compound, the “synergy, additivity or antagonism” value (SkBr-3) was “+ (Additive relative to each agent alone (CI = 0.9-1 by Bliss Independence Model and <0.9 by Highest Single Agent Model))”, the “synergy, additivity or antagonism” value (H23) was “+ + (Slight synergy relative to each agent alone (CI = 0.75-0.9 by Bliss Independence Model))” and the “synergy, additivity or antagonism” value (MDA-MB-231) was “+ (Additive relative to each agent alone (CI = 0.9-1 by Bliss Independence Model and <0.9 by Highest Single Agent Model))”. The “synergy, additivity or antagonism” value (SK-MEL-24) was “+ (Additive relative to each agent alone (CI = 0.9-1 by Bliss Independence Model and <0.9 by Highest Single Agent Model))”, the “synergy, additivity or antagonism” value (Mia-Paca-2) was “+ (Additive relative to each agent alone (CI = 0.9-1 by Bliss Independence Model and <0.9 by Highest Single Agent Model))” and the “synergy, additivity or antagonism” value (Caov-3) was “+ (Additive relative to each agent alone (CI = 0.9-1 by Bliss Independence Model and <0.9 by Highest Single Agent Model))”. For the same compound, the “synergy, additivity or antagonism” value (Panc-1) was “+ + (Slight synergy relative to each agent alone (CI = 0.75-0.9 by Bliss Independence Model))” and the “synergy, additivity or antagonism” value (Caki-1) was “+ (Additive relative to each agent alone (CI = 0.9-1 by Bliss Independence Model and <0.9 by Highest Single Agent Model))”.
